Drawing on article PMC10523529 (Proceedings of the National Academy of Sciences of the …, 2023), this text covers Kd for one molecule.

In this assay the target is T1, TAK1 (TAK1-TAB1 fusion protein) (Homo sapiens, UniProt O43318).
T1 sequence (O43318 15-303): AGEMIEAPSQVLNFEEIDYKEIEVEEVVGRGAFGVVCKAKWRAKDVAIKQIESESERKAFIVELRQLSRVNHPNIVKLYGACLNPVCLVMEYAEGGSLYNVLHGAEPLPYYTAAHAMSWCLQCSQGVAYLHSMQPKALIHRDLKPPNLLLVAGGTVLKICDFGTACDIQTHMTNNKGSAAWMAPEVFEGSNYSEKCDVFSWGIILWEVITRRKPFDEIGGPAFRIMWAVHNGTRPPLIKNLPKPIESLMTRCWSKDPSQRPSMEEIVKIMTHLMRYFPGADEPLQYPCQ
T1 sequence (Q15750 468-504 partner): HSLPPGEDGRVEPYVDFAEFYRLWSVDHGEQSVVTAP
Kind of assay: SPR. Type of assay: binding.

As for `COc1cc(Nc2ncc(F)c(Nc3ccc4c(n3)N(COP(=O)(O)O)C(=O)C(C)(C)O4)n2)cc(OC)c1OC` [R788], the Kd was determined as 12.1 µM.
